The source of these data is patent US10294202B2, “Pyrrolidinones as herbicides” (FMC Corporation, priority 2013, dated 2019).

One experiment has as its system giant foxtail. Briefly: Test A pre-/postemergence herbicide test. Format: in vivo, Setaria faberii. To be noted: for Foxtail, Giant plant response rating: Preemergence, visual rating on 0 to 100 scale (0 no effect, 100 complete control); for pest or weed control at 125 g/ha / pest or weed control at 500 g/ha: Setaria faberi, 240 h, read-out: Plant response rating, Foxtail, Giant. In short, it runs like this:
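Greenhouse pot test with pre- and postemergence application of surfactant-containing solvent formulations. Postemergence plants were 2–10 cm, one- to two-leaf stage. Response scored visually after ~10 days, 0 (no effect) to 100 (complete control).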

The next experiment deals with chickweed. Put plainly: Test C postemergence herbicide test. Format: in vivo, Stellaria media. The procedure, abridged:
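Response is scored visually on a 0–100 scale (100 = complete control) relative to untreated controls, 13 to 15 days after treatment. Plants were sprayed postemergence at the 1- to 4-leaf stage (2 to 18 cm tall) and kept in a greenhouse.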

The test system of another experiment is sedge, umbrella. Put plainly: Test B flooded paddy test. To be noted: Flood, scale of 0 to 100 where 0 is no effect and 100 is complete control. Format: in vivo, Cyperus difformis. The procedure, abridged: (§1)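 2-leaf plants; flood 3 cm over soil; compound into paddy water; depth held. Greenhouse 13–15 d. Visual rating vs controls, 0 (no effect) to 100 (complete control); dash = not tested.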

Experiment [1] relates to barnyardgrass. Briefly: Test C flooded paddy test. The format is in vivo, Echinochloa crus-galli. Conditions: Flood. The procedure, abridged:
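Visual ratings from 0, no effect, to 100, complete control, were made against untreated controls after 13–15 greenhouse days. Compounds had gone straight into paddy water 3 cm above the soil, kept at that depth, on 2-leaf-stage plants.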

Experiment [2] concerns barnyardgrass. Briefly: Test B flooded paddy test. The format is in vivo, Echinochloa crus-galli. Conditions: Flood, scale of 0 to 100 where 0 is no effect and 100 is complete control. In short, it runs like this:
as §1

The test system of another experiment is waterhemp. Put plainly: Test C pre-/postemergence herbicide test. The format is in vivo, Amaranthus rudis. The procedure, abridged:
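Greenhouse pots; formulation = non-phytotoxic solvent mix + surfactant. PRE onto seeds in loam:sand; POST at 1–4 leaves (2–18 cm) in peat moss/vermiculite medium. Read-out: visual % control vs untreated, day 13–15.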

[3] abbreviates: 62 g ai/ha, scale 0 to 100 (0 no effect, 100 complete control).
Where [4] appears, read: 125 g ai/ha, scale 0 to 100 (0 no effect, 100 complete control).
Where [5] appears, read: 250 g ai/ha, scale 0 to 100 (0 no effect, 100 complete control).
Where [6] appears, read: 31 g ai/ha, scale of 0 to 100 where 0 is no effect and 100 is complete control, 13 to 15 days.
Where [7] appears, read: 62 g ai/ha, scale of 0 to 100 where 0 is no effect and 100 is complete control, 13 to 15 days.
Setting [8] is: 125 g ai/ha, scale of 0 to 100 where 0 is no effect and 100 is complete control, 13 to 15 days.
[9] abbreviates: Postemergence, 125 g ai/ha, scale 0 to 100 (0 no effect, 100 complete control).
Setting [10] is: Postemergence, 250 g ai/ha, scale 0 to 100 (0 no effect, 100 complete control).
[11] abbreviates: Preemergence, 31 g ai/ha, scale 0 to 100, 0 is no effect and 100 is complete control.
Where [12] appears, read: Preemergence, 125 g ai/ha, scale 0 to 100 (0 no effect, 100 complete control).
The mark [13] stands for this setting: 31 g ai/ha, scale 0 to 100 (0 no effect, 100 complete control).
[14] abbreviates: 62 g ai/ha, scale 0 (no effect) to 100 (complete control).
The mark [15] stands for this setting: 250 g ai/ha, scale of 0 to 100 where 0 is no effect and 100 is complete control, 13 to 15 days.
[16] abbreviates: Postemergence, 31 g ai/ha, scale 0 to 100 (0 no effect, 100 complete control).
[17] abbreviates: Postemergence, 62 g ai/ha, scale 0 (no effect) to 100 (complete control).
[18] abbreviates: Preemergence, 62 g ai/ha, scale 0 to 100 (0 no effect, 100 complete control).
Setting [19] is: 125 g ai/ha, visual rating, 0 to 100 scale, 0 no effect, 100 complete control, approximately 10 days, preemergence.
[20] abbreviates: Postemergence, 125 g ai/ha, 0 to 100 scale, 0 is no effect, 100 is complete control.
The mark [21] stands for this setting: preemergence, 500 g ai/ha, 0 to 100 scale, 0 is no effect and 100 is complete control.

Read-outs that look alike come from different tables or passages of the source.

Consider `O=C1NCC(c2ccc(Cl)c(F)c2)C1C(=O)Nc1cccc(F)c1F` (stereo not shown) [Compound 52], for which the “Plant response rating, Foxtail, Giant” value in the experiment with giant foxtail (Postemergence, 125 g ai/ha, 0 to 100 scale, 0 no effect, 100 complete control) was determined as 80; in the experiment with giant foxtail (Postemergence, 500 g ai/ha, 0 to 100 scale (0 no effect, 100 complete control)), 80; with giant foxtail (preemergence, 500 g ai/ha, 0 to 100 scale), 90. Besides, in the experiment on giant foxtail (125 g ai/ha), the “Foxtail, Giant plant response rating” value came to 80. Also, the “Plant response rating, Chickweed” value in the experiment with chickweed (setting [3]) is 25; in the experiment on chickweed (setting [4]), 45; with chickweed (setting [5]) it was 60. In addition, in the experiment on sedge, umbrella (250 g ai/ha), the “Plant response rating, Sedge, Umbrella” value came to 85. For the same compound, the “Plant response rating, Barnyardgrass” value in the experiment with barnyardgrass [1] (setting [6]) amounted to 0; in the experiment on barnyardgrass [1] (setting [7]), 0; in the experiment on barnyardgrass [1] (setting [8]), 0; in the experiment on barnyardgrass [1] (250 g ai/ha, scale 0 to 100) it was 0; in the experiment with barnyardgrass [2] (250 g ai/ha) it was 55.

For the compound `O=C1NCC(c2ccc(C(F)(F)F)cc2)C1C(=O)Nc1cccc(F)c1F` (stereo not shown) [Compound 80, N-(2,3-difluorophenyl)-2-oxo-4-[4-(trifluoromethyl)phenyl]-3-pyrrolidinecarboxamide], the “Foxtail, Giant plant response rating” value in the experiment on giant foxtail (125 g ai/ha) is reported as 90. The pest or weed control at 125 g/ha with giant foxtail (post-emergence, Postemergence, 125 g ai/ha, 0 to 100 scale, 0 no effect, 100 complete control) is 80%. The pest or weed control at 500 g/ha is 80% with giant foxtail (post-emergence, Postemergence, 500 g ai/ha, 0 to 100 scale (0 no effect, 100 complete control)) and 90% in the experiment with giant foxtail (pre-emergence, preemergence, 500 g ai/ha, 0 to 100 scale). Moreover, the “Plant response rating, Chickweed” value in the experiment on chickweed (31 g ai/ha, scale 0 (no effect) to 100 (complete control)) is reported as 70; in the experiment on chickweed (setting [3]) it was 85; in the experiment with chickweed (setting [4]) it was 90; with chickweed (setting [5]) it was 90. Besides, in the experiment with sedge, umbrella (250 g ai/ha), the “Plant response rating, Sedge, Umbrella” value was determined as 0. The “Plant response rating, Barnyardgrass” value in the experiment with barnyardgrass [1] (setting [6]) amounted to 0; with barnyardgrass [1] (setting [7]), 0; in the experiment with barnyardgrass [1] (setting [8]), 0; in the experiment on barnyardgrass [1] (250 g ai/ha, scale 0 to 100), 20; in the experiment with barnyardgrass [2] (250 g ai/ha), 30. Besides, the “Plant response rating, Waterhemp” value in the experiment on waterhemp (Postemergence, 31 g ai/ha, scale 0 (no effect) to 100 (complete control)) came out at 30; in the experiment on waterhemp (Postemergence, 62 g ai/ha, scale 0 to 100 (0 no effect, 100 complete control)), 45; with waterhemp (setting [9]), 45; in the experiment on waterhemp (setting [10]) it was 65; in the experiment with waterhemp (Preemergence, 62 g ai/ha, scale 0 to 100), 80; in the experiment with waterhemp (setting [12]), 90. Besides, the “Waterhemp plant response rating” value with waterhemp (setting [11]) is recorded as 15. In addition, in the experiment with waterhemp (Preemergence, 250 g ai/ha), the “Plant response rating (scale of 0 to 100), Waterhemp” value stood at 90.

On to `O=C1NC[C@H](c2cccc(C(F)(F)F)c2)[C@H]1C(=O)Nc1ccccc1F` [Compound 204, (3R,4S)—N-(2-fluorophenyl)-2-oxo-4-[3-(trifluoromethyl)phenyl]-3-pyrrolidinecarboxamide], for which the “Foxtail, Giant plant response rating (0 to 100 scale, 0 is no effect, 100 is complete control)” value with giant foxtail (Postemergence, 500 g ai/ha) stood at 90. Moreover, the pest or weed control at 125 g/ha amounted to 90% in the experiment with giant foxtail (post-emergence, Postemergence, 125 g ai/ha, 0 to 100 scale, 0 is no effect, 100 is complete control) and 90% in the experiment on giant foxtail (pre-emergence, 125 g ai/ha, visual rating, 0 to 100 scale, 0 no effect, 100 complete control, approximately 10 days). Moreover, the pest or weed control at 500 g/ha in the experiment on giant foxtail (pre-emergence, preemergence, 500 g ai/ha, 0 to 100 scale, 0 is no effect and 100 is complete control) is 90%. The “Plant response rating, Chickweed” value is 0 in the experiment with chickweed (setting [13]), 30 in the experiment with chickweed (setting [14]), 55 with chickweed (setting [4]) and 65 in the experiment with chickweed (setting [5]). Moreover, the “Plant response rating, Barnyardgrass” value in the experiment on barnyardgrass [1] (setting [8]) is recorded as 50; with barnyardgrass [1] (setting [15]), 70; with barnyardgrass [1] (500 g ai/ha, scale 0 to 100), 75; with barnyardgrass [1] (1000 g ai/ha, scale 0 to 100), 80. In addition, the “Plant response rating, Waterhemp” value with waterhemp (setting [16]) came out at 0; in the experiment on waterhemp (setting [17]) it was 0; with waterhemp (setting [9]) it was 0; with waterhemp (setting [10]) it was 5; with waterhemp (setting [12]) it was 80. For the same compound, the “Waterhemp plant response rating” value with waterhemp (setting [11]) is reported as 100; in the experiment on waterhemp (setting [18]), 75. For the same compound, the “Plant response rating (scale of 0 to 100), Waterhemp” value in the experiment on waterhemp (Preemergence, 250 g ai/ha) worked out at 90.

In the case of `O=C1NC[C@H](c2cccc(C(F)(F)F)c2)[C@H]1C(=O)Nc1cccc(F)c1F` [Compound 206], the “Plant response rating, Foxtail, Giant” value in the experiment with giant foxtail (setting [19]), in the experiment with giant foxtail (setting [20]) and in the experiment with giant foxtail (setting [21]) was 90 in each case. Moreover, in the experiment with giant foxtail (Postemergence, 500 g ai/ha), the “Foxtail, Giant plant response rating (0 to 100 scale, 0 is no effect, 100 is complete control)” value is reported as 90. The “Plant response rating, Chickweed” value is on record as 85 in the experiment with chickweed (setting [13]), 60 in the experiment on chickweed (setting [14]), 85 with chickweed (setting [4]) and 85 in the experiment on chickweed (setting [5]). The “Plant response rating, Barnyardgrass” value with barnyardgrass [1] (setting [8]) was found to be 35; in the experiment on barnyardgrass [1] (setting [15]) it was 60; in the experiment with barnyardgrass [1] (500 g ai/ha, scale 0 to 100), 75; in the experiment with barnyardgrass [1] (1000 g ai/ha, scale 0 to 100) it was 85. Moreover, the “Plant response rating, Waterhemp” value in the experiment with waterhemp (setting [16]) is 0; in the experiment on waterhemp (setting [17]), 0; with waterhemp (setting [9]) it was 35; with waterhemp (setting [10]) it was 30; with waterhemp (setting [12]), 100. For the same compound, the entries for the “Waterhemp plant response rating” value in the experiment with waterhemp (setting [11]) and with waterhemp (setting [18]) were 70 and 100, respectively. For the same compound, the “Plant response rating (scale of 0 to 100), Waterhemp” value with waterhemp (Preemergence, 250 g ai/ha) was determined as 100.

As to `O=C1NCC(c2cccc(OC(F)F)c2)C1C(=O)Nc1cccc(F)c1F` (stereo not shown) [Compound 224], the “Plant response rating, Foxtail, Giant” value was determined as 90 in the experiment with giant foxtail (setting [19]), 80 with giant foxtail (setting [20]) and 90 with giant foxtail (setting [21]). For the same compound, the “Foxtail, Giant plant response rating (0 to 100 scale, 0 is no effect, 100 is complete control)” value with giant foxtail (Postemergence, 500 g ai/ha) is 80. Moreover, the “Plant response rating, Chickweed” value in the experiment on chickweed (setting [13]) is 70; in the experiment on chickweed (setting [14]) it was 70; with chickweed (setting [4]) it was 70; with chickweed (setting [5]) it was 85. Also, in the experiment with sedge, umbrella (500 g ai/ha), the “Plant response rating, Sedge, Umbrella” value was determined as 0. Besides, the “Plant response rating, Barnyardgrass” value is given as 0 with barnyardgrass [1] (setting [6]); 20 in the experiment with barnyardgrass [1] (setting [7]); 40 with barnyardgrass [1] (setting [8]); 60 in the experiment on barnyardgrass [1] (setting [15]); 70 with barnyardgrass [2] (500 g ai/ha). Further, the “Plant response rating, Waterhemp” value in the experiment with waterhemp (setting [16]) is recorded as 25; in the experiment on waterhemp (setting [17]), 35; in the experiment on waterhemp (setting [9]) it was 30; in the experiment on waterhemp (setting [10]), 30; in the experiment with waterhemp (setting [12]), 70. The “Waterhemp plant response rating” value amounted to 75 in the experiment on waterhemp (setting [11]) and 5 with waterhemp (setting [18]). For the same compound, the “Plant response rating (scale of 0 to 100), Waterhemp” value in the experiment on waterhemp (Preemergence, 250 g ai/ha) worked out at 80.
